From US20240398783A1, “Compounds and Pharmaceutical Compositions Comprising Inhibitors of Amyloid Peptide Interactions with Glycosaminoglycans, Methods of Treatment and Use Thereof” (Gismo Therapeutics, Inc., priority 2021, published 2024)
pIC50: −log10 of the molar value. Counter-ions that a name gives are not always drawn. Like-named read-outs stand apart in the source and are kept apart here.

What was measured:
[1] = target: Alpha-Synuclein Protofibril binding to heparin (HS-GAG) (Homo sapiens, UniProt P37840); assay: Inhibition of alpha-synuclein protofibril binding to immobilized heparin-BSA (ELISA); set-up: species or system porcine; conditions: for inhibition at 30 µM: read-out: Alpha-Synuclein/Heparin Activity (% inhibition class)
Description: (§1) Porcine intestinal mucosa heparin conjugated to Bovine Serum Albumin (Heparin-BSA) was prepared as described (Najjam, S. et al. 1997, Cytokine 12, 1013-1022). Heparin is a sulfated HS-GAG and is commonly used as a HS-GAG in biochemical and binding assays (Lindahl, U. and Kjellen, L. (2013) ibid). Heparin-BSA at 0.01 mg/ml in Phosphate Buffered Saline (PBS; pH 7.4) was added to a 96 well polystyrene ELISA plate (NUNC Cat. No. 449824; 100 μl per well) and incubated Over Night (ON) at 4 degrees Celsius. For negative controls, ELISA plates were coated with BSA instead of Heparin-BSA, using the same procedure. Following the incubation, the plate was washed consecutively, by immersion, with de-ionized water and PBS (pH 7.4). The ELISA plate was then blocked with nonfat milk (2%, 200 μl per well) for 2 hours at Room Temperature (RT) with gentle shaking. Following blocking, the plate was washed with de-ionized water then PBS (pH 7.4). GBAPs were dissolved and diluted in PBS (pH 6.5, supplemented with 0.1% BSA) at desired concentrations, added to the ELISA plates containing immobilized Heparin-BSA (100 μl per well) and incubated for 2 hours at RT with gentle shaking. Following incubation, the plate was washed with de-ionized water and three times with PBS (pH 6.5) plus Tween. Bound GBAP was detected by a monoclonal antibody specific for that GBAP, followed by incubation with secondary antibody conjugated to horseradish peroxidase (HRP). Antibody was diluted in PBS (pH 6.5 supplemented with 1% BSA). Following each incubation with antibody, the plate was washed with de-ionized water and three times with PBS (pH 6.5) wash buffer containing 0.1% Tween. The peroxidase substrate chromogen, TMB (Dako Cat. No. S1599) was added (100 μl per well) to the ELISA plate and incubated at room temperature. After 5 minutes ELISA Stop Solution (hydrochloric acid 1N, sulfuric acid 3N) was added (100 μl per well) to stop the peroxidase catalyzed colorimetric reaction. The Optical Density of the samples was measured at 450 nm using an ELISA plate reader (BioTek Synergy H1). Following color development, the % inhibition compared to control (BSA-coated plates) was determined. IC-50s were calculated using GraphPad Prism software.
The assay was performed as described in Example 43, with the following modifications. Following to coating the plates with Heparin-BSA, plates were washed as described. The compounds were dissolved in DMSO at 10 mM final concentration and further diluted prior to assay. DMSO concentration in the screening well was up to […]. Individual compounds were co-incubated with alpha-synuclein on plates containing immobilized heparin. Alpha-synuclein purchased from rPeptide (Cat. No. S1001) was used to prepare protofibrils as described in Ihse et al., 2017. Alpha-synuclein was dissolved in PBS (pH7.4) to a concentration of 140 μM (˜2 mg/ml), and incubated for 7 days at 37° C. with rotary agitation (400 rpm). Resulting fibrils were sonicated for 10 minutes in ultrasonic water bath, quickly frozen and kept in aliquots at −80 degrees Celsius. Protofibrillar alpha-synuclein diluted in PBS (pH 6.5, supplemented with BSA, 0.1%) was added to the ELISA plate (100 μl per well) and incubated for 2 hours at RT with gentle shaking. Following the incubation, the plate was washed with de-ionized water and three times with PBS (pH 6.5) plus Tween. Bound Alpha-synuclein was detected by Anti-Alpha-synuclein Monoclonal Antibody 211 (Santa Cruz Cat. No. sc-12767), followed by secondary anti-IgG antibody conjugated to HRP (R&D System, Cat. No. HAF007). Following to color development with TMB, as described in Example 43, the Optical Density of the samples was measured at 450 nm using an ELISA plate reader. Following color development, the % inhibition compared to control (no compound, DMSO control) for every compound was determined.
An example of inhibition curve is shown in FIG. 1 for Inhibitor Compounds 22 and 24. […]

[2] = target: T1, SAA binding to heparin (HS-GAG) (Homo sapiens, UniProt P0DJI8); assay: Inhibition of SAA binding to immobilized heparin-BSA (ELISA); set-up: species or system porcine
T1 sequence (P0DJI8 19-122): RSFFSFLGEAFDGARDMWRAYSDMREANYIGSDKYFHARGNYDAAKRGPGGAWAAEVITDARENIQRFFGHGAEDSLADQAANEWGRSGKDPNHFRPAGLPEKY
Description: as §1
The assay was performed as described in Example 43, with the following modifications. Following to coating the plates with Heparin-BSA, plates were washed as described. The compounds were dissolved in DMSO at 10 mM final concentration and further diluted prior to assay. DMSO concentration in the screening well was up to 2%. Individual compounds were co-incubated with SAA on plates containing immobilized heparin. Serum amyloid A (SAA) from PeProtech (NJ, USA, Cat. No. 300-53) was dissolved in DMSO, quickly frozen and kept in aliquots at −80 degrees Celsius. SAA dissolved in Tris buffer (pH 6.5, supplemented with BSA, 0.1%) was added to the ELISA plate (100 μl per well) and incubated for 2 hours at RT with gentle shaking. Following the incubation, the plate was washed with de-ionized water and three times with Tris Buffered Saline (TBS, pH 6.5) plus Tween. Bound SAA was detected by Anti-SAA Monoclonal Antibody (R&D System Cat. No. MAB30192), followed by secondary anti-IgG antibody conjugated to HRP (R&D System, Cat. No. HAF007). Antibody was diluted in TBS antibody buffer (pH6.5 supplemented with 1% BSA). Following each incubation with antibody, the plate was washed with de-ionized water and three times with TBS (pH6.5) wash buffer containing 0.1% Tween. Following to color development with TMB, as described in Example 43, the Optical Density of the samples was measured at 450 nm using an ELISA plate reader. Following color development, the % inhibition compared to control (no compound, DMSO control) for every compound was determined.
As described in Example 43, Heparin in the form of Heparin-BSA conjugate is used as a source of HS-GAG. For each compound IC-50 value in SAA—heparin-BSA binding assay is shown in μM (micromolar). […]

[3] = 30 μM compound, alpha-synuclein protofibrils, heparin-BSA
[4] = 30 μM compound; SAA, heparin-BSA; read-out: Serum Amyloid A/Heparin Activity (% inhibition class)
[5] = read-out: Serum Amyloid A/Heparin Activity (% inhibition class)
[6] = read-out: Serum Amyloid A/Heparin Activity (IC-50); SAA, heparin-BSA
[7] = Alpha-Synuclein/Heparin Activity (IC-50), alpha-synuclein protofibrils, heparin-BSA
[8] = alpha-synuclein protofibrils, heparin-BSA, read-out: Alpha-Synuclein/Heparin Activity (IC-50)
[9] = SAA, heparin-BSA; read-out: Serum Amyloid A/Heparin Activity (IC-50)

| SMILES | inhibition at 30 µM [1] | inhibition at 30 µM [2, 5] | pIC50 [2, 6] | pIC50 [1, 7] | other results |
| --- | --- | --- | --- | --- | --- |
| C[n+]1ccc(/C=N\Nc2ccnc3ccccc23)cc1 [Compound 9, (Z)-1-methyl-4-((2-(quinolin-4-yl)hydrazono)methyl)pyridin-1-ium iodide] | – | – | – | – | inhibition at 30 µM [1, 3]: < 30%; inhibition at 30 µM [2, 4]: < 30% |
| Cc1ncn(-c2ncc(Nc3ncnc4cc(Cl)ccc34)cc2O)c1C [Compound 40, 5-((7-chloroquinazolin-4-yl)amino)-2-(4,5-dimethyl-1H-imidazol-1-yl)pyridin-3-ol phosphoric acid salt] | < 30% | > 30% | – | – | – |
| Fc1ccc2c(N/N=C/c3ccc(-n4ccnc4)cc3)ccnc2c1 [Compound 5, (E)-4-(2-(4-(1H-imidazol-1-yl)benzylidene)hydrazinyl)-7-fluoroquinoline] | < 30% | – | 4.62 | – | – |
| C/C(=N\Nc1ncnc2cc(Cl)ccc12)c1ccc(-n2cnc(C)c2C)nc1 [Compound 16, 7-chloro-4-(2-(1-(6-(4,5-dimethyl-1H-imidazol-1-yl)pyridin-3-yl)ethylidene)hydrazineyl)quinazoline phosphate] | – | – | 4.86 | 5.49 | – |
| Cc1ncn(-c2ccc(Nc3ncnc4cc(Cl)ccc34)cn2)c1C [Compound 25, 7-chloro-N-(6-(4,5-dimethyl-1H-imidazol-1-yl)pyridin-3-yl)quinazolin-4-amine] | – | – | 4.39 | 5.42 | – |
| COc1cc(Nc2nncc3cc(Cl)ccc23)cnc1-n1cnc(C)c1C [Compound 31, 6-chloro-N-(6-(4,5-dimethyl-1H-imidazol-1-yl)-5-methoxypyridin-3-yl)phthalazin-1-amine phosphoric acid salt] | < 30% | > 30% | – | – | – |
| C/C(=N\Nc1ncnc2cc(Cl)ccc12)c1cccc(CN(C)C)c1 [Compound 29, 1-(3-(1-(2-(7-chloroquinazolin-4-yl)hydrazineylidene)ethyl)phenyl)—N,N-dimethylmethanamine] | > 30% | < 30% | – | – | – |
| Cc1ncn(-c2ccc(/C=N/Nc3ccnc4cc(Cl)ccc34)cc2)c1C [Compound 2, (E)-7-chloro-4-((E)-(4-(4,5-dimethyl-1H-imidazol-1-yl)benzylidene)hydrazono)-1,4-dihydroquinoline] | < 30% | – | 4.79 | – | – |
| Clc1ccc2c(Nc3ccc(-n4cncn4)nc3)ncnc2c1 [Compound 34, N-(6-(1H-1,2,4-triazol-1-yl)pyridin-3-yl)-7-chloroquinazolin-4-amine phosphoric acid salt] | – | – | 4.91 | 5.30 | – |
| C(=N\Nc1ccc2c3c(cccc13)CC2)/c1ccc(-n2ccnc2)cc1 [Compound 8, (E)-1-(4-((2-(1,2-dihydroacenaphthylen-5-yl)hydrazineylidene)methyl)phenyl)-1H-imidazole] | < 30% | < 30% | – | – | – |
| Clc1ccc2c(N/N=C/c3ccc(-n4ccnc4)cc3)ccnc2c1 [Compound 38, 4-(2-(4-(1H-imidazol-1-yl)benzylidene)hydrazineyl)-7-chloroquinoline dihydrochloride] | – | – | 4.83 | 5.73 | – |
| Clc1ccc2c(Nc3ccc(-n4ccnc4)nc3)ncnc2c1 [Compound 41, N-(6-(1H-imidazol-1-yl)pyridin-3-yl)-7-chloroquinazolin-4-amine] | – | – | – | – | pIC50 [1, 8]: 4.89; pIC50 [2, 9]: 4.92 |
| CN1CCN(Cc2ccc(/C=N/Nc3ccnc4cc(Cl)ccc34)cc2)CC1 [Compound 7, (E)-7-chloro-4-(2-(4-((4-methylpiperazin-1-yl)methyl)benzylidene)hydrazinyl)quinolone] | – | – | – | 5.85 | inhibition at 30 µM [2, 4]: > 30% |
| COc1cc2nccc(N/N=C/c3ccc(-n4ccnc4)c(OC)c3)c2cc1OC [Compound 13, (E)-4-(2-(4-(1H-imidazol-1-yl)-3-methoxybenzylidene)hydrazineyl)-6,7-dimethoxyquinoline phosphate] | – | < 30% | – | 4.45 | – |
| C/C(=N\Nc1ncnc2cc(Cl)ccc12)c1cccc(N2CCN(C)CC2)c1 [Compound 30, 7-chloro-4-(2-(1-(3-(4-methylpiperazin-1-yl)phenyl)ethylidene)hydrazineyl)quinazoline] | > 30% | < 30% | – | – | – |
| Clc1ccc2c(Nc3ccc(-n4cncn4)nc3)ccnc2c1 [Compound 44, N-(6-(1H-1,2,4-triazol-1-yl)pyridin-3-yl)-7-chloroquinolin-4-amine] | – | – | 4.76 | 4.72 | – |
| CC(=NNc1ncnc2cc(Cl)ccc12)c1ccnc(-n2cnc(C)c2C)c1 [Compound 28, 7-chloro-4-(2-(1-(2-(4,5-dimethyl-1H-imidazol-1-yl)pyridin-4-yl)ethylidene)hydrazineyl)quinazoline] | – | – | – | – | pIC50 [1, 8]: 5.49; pIC50 [2, 9]: 5.06 |
| Cc1cc(-n2ccnc2)ccc1/C=N/Nc1ccnc2cc(Cl)ccc12 [Compound 1, (E)-4-((E)-(4-(1H-imidazol-1-yl)-2-methylbenzylidene)hydrazono)-7-chloro-1,4-dihydroquinoline] | – | – | – | – | pIC50 [1, 8]: 5.50; pIC50 [2, 9]: 5.09 |
| C[N+](C)(C)Cc1ccc(/C=N\Nc2ccnc3ccc(Cl)cc23)cc1 [Compound 4, (Z)-1-(4-((2-(6-chloroquinolin-4-yl)hydrazineylidene)methyl)phenyl)—N,N,N-trimethylmethanaminium iodide] | – | – | – | – | inhibition at 30 µM [1, 3]: > 30%; inhibition at 30 µM [2, 4]: < 30% |
| COc1cc2nccc(NN=Cc3ccc(-n4ccnc4)c(C)c3)c2cc1OC [Compound 11, 4-(2-(4-(1H-imidazol-1-yl)-3-methylbenzylidene)hydrazineyl)-6,7-dimethoxyquinoline hydrochloride] | < 30% | < 30% | – | – | – |
